For data set [1] the following is noted: in vivo. The text has this:
(§1) • 1. […] Experimental Results and Evaluation: • The experiment adopts a bio-wave model which is used to research the promoting wave function of the compound of formula (I). […] II. Toxicological Test of the Compound of Formula (I), including: • 1. acute toxicity test: including tests of administrating medicine by oral, Intravenous injection and maximum limit amount for administration; • 2. […] III. Test of Removing Pathogenic Microorganism by Resistance to Field Planting Action

For data set [2], the system named is pathogenic microorganism such as Candida albicans, vagina Heamophilus. Description: Test of removing pathogenic microorganism by resistance to field planting action. Format: cell-based. The settings on record: in situ bacterial field planting, qualitative and quantitative determination tests.
In data set [3] the test system is Lactobacilli. Description: Liquid cultivation of Lactobacilli. Format: cell-based.
Excerpt: as §1

The test system of data set [4] is Proteus Mirabilis. Description: Promoting wave test (bio-wave model on LB plate). Format: cell-based.
Excerpt: as §1

The subject of data set [5] is cervix erosion. Description: Clinic test in patients with cervix erosion. It counts as in vivo, human beings. To be noted: treating group 83 cases, positive medicament control group 60 cases. The text has this:
A spray formulation of 2% N-acetyl-D-glucosamine was applied to human beings, up to the end of August 1999, there were 123 cases of patients to be observed in total.

With `CC(=O)N[C@@H]1[C@@H](O)[C@H](O)[C@@H](CO)O[C@H]1O` [compound of formula (I), N-acetyl-D-glucosamine], the “acute test dosage relative to the injection dosage for human being” value in data set [1] was 300 times. In data set [2], the “effect on field planting growth of pathogenic microorganism” value is “disabling pathogenic microorganism such as Candida albicans, vagina Heamophilus and etc. from field planting growth”; the “sterilizing or bacteria-inhibiting effect” value is given as “substantially has no sterilizing or bacteria-inhibiting effect”. Moreover, in data set [3], the “growth of Lactobacilli” value was “can improve the growth of Lactobacilli”. The “promoting wave function (wave pattern of concentric rings)” value in data set [4] is on record as “many fine waves on each ring emerged”.
For `O=[N+]([O-])[O-].[Ag+]` [AgNO3], in data set [5], the “cured (number of cases)” value was found to be 5 and the “effective (number of cases)” value is 8.

Values taken from US6992073B2, “Use of N-acetyl-D-glucosamine in the manufacture of a medicament for treating cervical erosion” (Third Military Medical University, Chinese People's …, priority 2002, dated 2006).
